In article PMC11124822, “Discovery and Anticancer Screening of Novel Oxindole-Based Derivative Bearing Pyridyl Group as Potent and Selective Dual FLT3/CDK2 Kinase Inhibitor” (Pharmaceuticals, 2024):

Molecular target: T1, FLT3 (Homo sapiens, UniProt P36888)
T1 construct: purchased Invitrogen/Life Technologies
T1 sequence (P36888 27-993): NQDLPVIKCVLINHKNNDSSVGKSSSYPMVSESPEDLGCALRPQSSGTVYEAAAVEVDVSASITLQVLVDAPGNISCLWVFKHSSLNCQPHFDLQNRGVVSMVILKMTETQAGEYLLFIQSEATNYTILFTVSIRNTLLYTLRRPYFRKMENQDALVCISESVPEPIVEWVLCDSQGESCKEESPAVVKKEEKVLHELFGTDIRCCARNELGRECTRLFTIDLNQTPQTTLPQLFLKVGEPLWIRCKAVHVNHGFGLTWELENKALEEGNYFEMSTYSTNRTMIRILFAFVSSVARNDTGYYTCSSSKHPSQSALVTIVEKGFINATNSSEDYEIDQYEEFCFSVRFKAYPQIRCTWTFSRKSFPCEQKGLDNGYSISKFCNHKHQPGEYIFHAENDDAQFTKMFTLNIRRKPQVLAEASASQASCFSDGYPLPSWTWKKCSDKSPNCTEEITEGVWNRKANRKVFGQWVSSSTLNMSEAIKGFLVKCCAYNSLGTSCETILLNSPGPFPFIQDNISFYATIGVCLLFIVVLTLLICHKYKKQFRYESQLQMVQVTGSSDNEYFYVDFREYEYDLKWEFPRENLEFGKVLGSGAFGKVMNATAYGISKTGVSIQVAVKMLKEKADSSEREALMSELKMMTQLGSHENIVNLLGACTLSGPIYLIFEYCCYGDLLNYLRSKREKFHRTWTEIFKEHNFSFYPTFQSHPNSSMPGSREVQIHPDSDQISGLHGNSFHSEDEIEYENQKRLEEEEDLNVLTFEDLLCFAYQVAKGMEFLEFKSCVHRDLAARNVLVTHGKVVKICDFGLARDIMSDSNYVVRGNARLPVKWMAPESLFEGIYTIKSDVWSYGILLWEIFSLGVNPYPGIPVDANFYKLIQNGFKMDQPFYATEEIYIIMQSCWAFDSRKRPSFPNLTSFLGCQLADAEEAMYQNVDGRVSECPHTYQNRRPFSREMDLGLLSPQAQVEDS
Experiment: Z'-LYTE kinase assay
Type: biochemical
Procedure: The Z’-LYTE® technology, which relies on FRET (Fluorescence Resonance Energy Transfer) from Invitrogen/Life Technologies, was employed for this evaluation for all kinases except VEGFR-2. The VEGFR-2 kinase assay was conducted in a 96-well streptavidin-coated plate using a recombinant human VEGFR-2/KDR ELISA kit, following the manufacturer’s instructions. […] Statistical significance was assessed using one-way analysis of variance (ANOVA), followed by the Dunnett test; data are represented as means ± SD.

Structure (SMILES): O=C1Nc2cc(Cl)ccc2C1=Cc1ccc(OCc2cccnc2)cc1 (mixture of isomers) [Compound 5l, (E/Z)-6-Chloro-3-[4-(pyridin-3-ylmethoxy)benzylidene] indolin-2-one]
- inhibition at 10 µM (10 µM, FLT3): 92.6%
- IC50 (three separate experiments ± SD): 36.2 ± 1.07 nM
